According to patent publication US10881698B2, “Diagnosis and treatment for respiratory tract diseases” (THE TRUSTEES OF THE UNIVERSITY OF PENNSYLVANIA, priority 2012, dated 2021):
Substitutions are numbered along the chain they refer to. “And” between values parts separate entries of the source, which are not always exact repeats. Equal entries are not always repeated. Values belong to the compound of their own block, whether it stands above or below them.

Experiments:
AVI-TAS2R38 = biological target: T1, AVI-TAS2R38 (Homo sapiens, UniProt P59533, A262V); experiment: Fluo-4 calcium mobilization in HEK293 cells expressing hTAS2R38 (AVI) and Gα16gustducin44; type: cell-based; details: AVI variant
T1 construct: first 45 amino acids of rat SSTR-3 (N); host or cells: HEK293 (peakRapid), transient transfection, pcDNA3.1(+)
T1 sequence (P59533 1-333 A262V): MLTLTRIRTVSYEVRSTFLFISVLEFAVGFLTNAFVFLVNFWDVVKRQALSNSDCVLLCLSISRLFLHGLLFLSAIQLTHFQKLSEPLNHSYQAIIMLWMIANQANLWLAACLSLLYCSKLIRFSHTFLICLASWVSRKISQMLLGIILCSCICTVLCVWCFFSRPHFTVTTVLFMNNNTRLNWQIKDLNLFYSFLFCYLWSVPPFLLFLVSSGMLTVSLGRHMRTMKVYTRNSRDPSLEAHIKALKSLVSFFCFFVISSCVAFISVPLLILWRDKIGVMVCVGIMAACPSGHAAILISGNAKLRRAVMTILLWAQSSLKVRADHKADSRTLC

PAV-TAS2R38 = biological target: T2, PAV-TAS2R38 (Homo sapiens, UniProt P59533, A49P/I296V); experiment: Fluo-4 calcium mobilization in HEK293 cells expressing hTAS2R38 (PAV) and Gα16gustducin44; type: cell-based; details: PAV variant
T2 construct: first 45 amino acids of rat SSTR-3 (N); host or cells: HEK293 (peakRapid), transient transfection, pcDNA3.1(+)
T2 sequence (P59533 1-333 A49P/I296V): T1 sequence (P59533 1-333 A262V) with A49P, V262A, I296V

T2R38 [1] = experiment: DAF-FM imaging of NO production in human sinonasal ALI cultures; type: cell-based; details: for DAF-FM fluorescence increase: 5 min, PAV/AVI
T2R38 [2] = biological target: T3, T2R38 (Homo sapiens, UniProt P59533, A49P/I296V); experiment: Fluo-4 Ca2+ imaging in primary human sinonasal ALI cultures; type: cell-based; details: for Average peak Fluo-4 F/Fo after 5 min stimulation with C6HSL: 200 μM C6HSL
T3 construct: T2R38 is expressed in human upper airway epithelium; endogenous in cells; host or cells: primary human sinonasal epithelial cells, air-liquid interface cultures from surgical patients
T3 sequence (P59533 1-333 A49P/I296V): T1 sequence (P59533 1-333 A262V) with A49P, V262A, I296V

T2R38 [3] = biological target: T4, T2R38 (Homo sapiens, UniProt P59533, A262V); experiment: as above; type: cell-based; details: AVI/AVI
T4 construct: T2R38 is expressed in human upper airway epithelium; endogenous in cells; host or cells: primary human sinonasal epithelial cells, air-liquid interface cultures from surgical patients
T4 sequence (P59533 1-333 A262V): T1 sequence (P59533 1-333 A262V)

T2R38 [4] = biological target: T3, T2R38; experiment: DAF-FM imaging of NO production in human sinonasal ALI cultures; type: cell-based; details: for DAF-FM fluorescence increase: 5 min, PAV/PAV
T2R38 [5] = biological target: T4, T2R38; experiment: as above; type: cell-based; details: 5 min, AVI/AVI
sinonasal ALI cultures [6] = experiment: Mucociliary transport velocity of fluorescent microspheres on sinonasal ALI cultures; type: cell-based, human
sinonasal ALI cultures [7] = type: cell-based, human
T2R38 [8] = experiment: Fluo-4 Ca2+ imaging in primary human sinonasal ALI cultures; type: cell-based; details: 100 μM C12HSL; PAV/AVI
beta-defensin 2 = experiment: Beta-defensin 2 secretion by sinonasal cultures; type: cell-based, human; details: denatonium- or absinthin-stimulated cultures
Pseudomonas aeruginosa [9] = experiment: Kill assay with ASL from stimulated sinonasal ALI cultures (CFU plating); type: cell-based
nasal epithelial cells = experiment: Fluo-4 calcium signaling with denatonium in nasal epithelial cells (sinonasal ALI cultures); type: cell-based, human; details: for Effect on denatonium induced calcium signaling: 2 mM sucrose or 1 mM sucralose
Pseudomonas aeruginosa [10] = system: Pseudomonas aeruginosa

- Peak Fluo-4 fluorescence (ΔF/F) (AVI-TAS2R38; 10 mM): 3±1%
- Peak Fluo-4 fluorescence (ΔF/F) (PAV-TAS2R38; 10 mM): 1.4±0.3%
SMILES: OCc1ccccc1O[C@@H]1O[C@H](CO)[C@@H](O)[C@H](O)[C@H]1O [salicin]

SMILES: C[C@H](CCC(=O)O)C[C@H](C)C[C@H](C)C(=O)/C=C(\O)[C@H](C)C[C@H](C)C/C=C/[C@@H](C)[C@@H](O)[C@@H](C)[C@@H](O)C[C@@H]1CC[C@@](C)([C@H]2CC[C@@](C)([C@@H](C)O)O2)O1 [ionomycin]
- DAF-FM responses between the genotypes (control stimuli) (T2R38 [1]): did not yield differential DAF-FM responses between the genotypes

SMILES: CCCCCC(=O)N[C@H]1CCOC1=O [C6HSL, N-Hexanoyl-L-homoserine lactone]
- Average peak Fluo-4 F/Fo after 5 min stimulation with C6HSL (T2R38 [2]; PAV/PAV): 1.52±0.074
- Average peak Fluo-4 F/Fo after 5 min stimulation with C6HSL (T2R38 [2]; PAV/PAV+U73122): 1.10±0.09
- Average peak Fluo-4 F/Fo after 5 min stimulation with C6HSL (T2R38 [3]; 200 μM C6HSL): 1.21±0.09

SMILES: CCCc1cc(=O)[nH]c(=S)[nH]1 [PROP, 6-n-propylthiouracil]
- Intracellular DAF-FM fluorescence (NO production) (T2R38 [4]; apical application, PAV/PAV (taster) cells): stimulated an increase in intracellular DAF-FM fluorescence

SMILES: CCCCCCCCCC(=O)CC(=O)N[C@H]1CCOC1=O [C12HSL, N-3-oxo-dodecanoyl-L-homoserine lactone]
- Peak Fluo-4 fluorescence (ΔF/F) (AVI-TAS2R38; 100 μM): 3±2%
- DAF-FM fluorescence increase (T2R38 [1]; 10 μM): 77±13
- DAF-FM fluorescence increase (T2R38 [1]; 100 μM): 109±25
- DAF-FM fluorescence increase (T2R38 [4]; 10 μM): 235±20
- DAF-FM fluorescence increase (T2R38 [4]; 100 μM): 351±65
- DAF-FM fluorescence increase (T2R38 [5]; 10 μM): 44±9
- DAF-FM fluorescence increase (T2R38 [5]; 100 μM): 64±16
- Peak Fluo-4 fluorescence (ΔF/F) (PAV-TAS2R38; 100 μM): 73±5%
- Increase in velocity (sinonasal ALI cultures [6]; 0.1 μM, PAV/PAV): 1.09±0.02
- Increase in velocity (sinonasal ALI cultures [6]; 1 μM, PAV/PAV): 1.23±0.04
- Increase in velocity (sinonasal ALI cultures [6]; 10 μM, PAV/PAV): 1.48±0.04
- Increase in velocity (sinonasal ALI cultures [6]; 100 μM, AVI/AVI): 1.14±0.03
- Increase in velocity (sinonasal ALI cultures [6]; 100 μM, PAV/PAV): 1.64±0.04
- Concentration required to stimulate a significant increase in mucociliary transport (sinonasal ALI cultures [6]; PAV/PAV cultures): 1 µM
- Peak CBF with C12HSL (sinonasal ALI cultures [7]): 1.25±0.05 and 1.03±0.01
- Fluo-4 fluorescence after 10 min C12HSL stimulation (T2R38 [8]): 1.28±0.04
- Fluo-4 fluorescence after 10 min C12HSL stimulation (T2R38 [2]; 100 μM C12HSL, PAV/PAV): 1.52±0.08
- Fluo-4 fluorescence after 10 min C12HSL stimulation (T2R38 [3]; 100 μM C12HSL): 1.14±0.01

- Effect on C4HSL-induced NO production in taster cultures (T2R38 [4]; C4HSL 200 μM, U73122 5 μM, 20 min pre-incubation): blocked
SMILES: COc1ccc2c(c1)CC[C@@H]1[C@@H]2CC[C@]2(C)[C@@H](NCCCCCCN3C(=O)C=CC3=O)CC[C@@H]12 [U73122]
- Effect on beta-defensin secretion (beta-defensin 2): may be blocked
- Effect on denatonium-induced antimicrobial response (Pseudomonas aeruginosa [9]; U73122 20 μM): inhibited

SMILES: OC[C@H]1O[C@H](O[C@]2(CCl)O[C@H](CCl)[C@@H](O)[C@@H]2O)[C@H](O)[C@@H](O)[C@H]1Cl [sucralose]
- Effect on denatonium induced calcium signaling (nasal epithelial cells): inhibits denatonium induced calcium signaling

SMILES: CC1(C)N([O])C(c2ccc(C(=O)O)cc2)=[N+]([O-])C1(C)C [cPTIO]
- % green (viable) PAO1 (Pseudomonas aeruginosa [10]): 93±2%

SMILES: OC[C@H]1O[C@@](CO)(O[C@H]2O[C@H](CO)[C@@H](O)[C@H](O)[C@H]2O)[C@@H](O)[C@@H]1O [sucrose]
- Effect on denatonium induced calcium signaling (nasal epithelial cells): inhibits denatonium induced calcium signaling

SMILES: COC(=O)[C@@]1(OC)C[C@H]2O[C@]1(C)n1c3ccccc3c3c4c(c5c6ccccc6n2c5c31)C(=O)N(C)C4 [KT5823]
- Effect on HSL-stimulated CBF increase (sinonasal ALI cultures [7]): blocked

SMILES: COc1ccc(OC(C)C(=O)O)cc1 (stereo not shown) [lactisole]
- Effect on sucrose/sucralose inhibition of denatonium calcium signaling (nasal epithelial cells; sweet receptor antagonist): substantially eliminates the inhibition
- Effect on glucose-mediated inhibition of bacterial kill (Pseudomonas aeruginosa [9]; lactisole 5 mM): reduced or reversed the glucose-mediated inhibition of bacterial kill
